Legend:
HepG2 = assay: Cytotoxicity against human HepG2 cells assessed as cell viability measured after 24 hrs by MTT assay; assay type: functional, cell-based; settings: HepG2, 24 h
NIH3T3 = assay: Cytotoxicity against mouse NIH3T3 cells assessed as cell viability measured after 24 hrs by MTT assay; assay type: cell-based; settings: NIH3T3, 24 h
A549 = assay: Cytotoxicity against human A549 cells assessed as cell viability measured after 24 hrs by MTT assay; assay type: functional, cell-based; settings: A549, 24 h
MCF7 = assay: Cytotoxicity against human MCF7 cells assessed as cell viability measured after 24 hrs by MTT assay; assay type: functional, cell-based; settings: MCF7, 24 h
[1] = Selectivity index, ratio of IC50 for cytotoxicity against mouse NIH3T3 cells to IC50 for cytotoxicity against human MCF7 cells; assay type: toxicity, cell-based; settings: NIH3T3 cells versus MCF7 cells, read-out: Ratio IC50
[2] = Selectivity index, ratio of IC50 for cytotoxicity against mouse NIH3T3 cells to IC50 for cytotoxicity against human HepG2 cells; assay type: toxicity, cell-based; settings: NIH3T3 cells versus HepG2 cells, read-out: Ratio IC50
C6 [3] = assay: Cytotoxicity against rat C6 cells assessed as cell viability measured after 24 hrs by MTT assay; assay type: functional, cell-based; settings: C6, 24 h
HT-29 = assay: Cytotoxicity against human HT-29 cells assessed as cell viability measured after 24 hrs by MTT assay; assay type: functional, cell-based; settings: HT-29, 24 h
[4] = Selectivity index, ratio of IC50 for cytotoxicity against mouse NIH3T3 cells to IC50 for cytotoxicity against human A549 cells; assay type: toxicity, cell-based; settings: NIH3T3 cells versus A549 cells, read-out: Ratio IC50
[5] = Selectivity index, ratio of IC50 for cytotoxicity against mouse NIH3T3 cells to IC50 for cytotoxicity against human HT-29 cells; assay type: toxicity, cell-based; settings: NIH3T3 cells versus HT-29 cells, read-out: Ratio IC50
[6] = Selectivity index, ratio of IC50 for cytotoxicity against mouse NIH3T3 cells to IC50 for cytotoxicity against rat C6 cells; assay type: toxicity, cell-based; settings: NIH3T3 cells versus C6 cells, read-out: Ratio IC50
C6 [7] = assay: Induction of apoptosis in rat C6 cells assessed as apoptotic cells at IC50 concentration measured after 24 hrs by Annexin V-FITC/PI staining based flow cytometry method relative to control; assay type: functional
C6 [8] = assay: Inhibition of DNA synthesis in rat C6 cells assessed as reduction in cell proliferation measured after 24 to 48 hrs by BrdU proliferation assay; assay type: functional, cell-based; settings: time 24-48 hrs

Compound | IC50 (HepG2) | IC50 (NIH3T3) | IC50 (A549) | IC50 (MCF7) | selectivity ratio [1] | selectivity ratio [2] | IC50 (C6 [3]) | IC50 (HT-29) | selectivity ratio [4] | selectivity ratio [5] | selectivity ratio [6] | Activity (C6 [7]) | inhibition (C6 [8])
O=C(CCl)Nc1ccc(-c2nc3cc(F)ccc3o2)cc1 | 8.12 µM | 9.19 µM | 37.7 µM | 3.26 µM | 2.82 | 1.13 | 2.99 µM | 6.93 µM | 0.24 | 1.33 | 3.07 | – | –
CN(C)CCN1CCN(CC(=O)Nc2ccc(-c3nc4ccccc4o3)cc2)CC1 | 16.3 µM | 35.8 µM | 18.7 µM | 59.4 µM | 0.6 | 2.2 | 7.01 µM | 5.31 µM | 1.92 | 6.74 | 5.11 | – | –
Cc1ccc2oc(-c3ccc(NC(=O)CCl)cc3)nc2c1 | 21.5 µM | 11.6 µM | 36.1 µM | 4.62 µM | 2.5 | 0.54 | 4.04 µM | 15.2 µM | 0.32 | 0.76 | 2.86 | – | –
Cc1ccc2oc(-c3ccc(NC(=O)CN4CCN(CCCN(C)C)CC4)cc3)nc2c1 | 3.16 µM | 26.4 µM | 10.6 µM | 19.1 µM | 1.38 | 8.36 | 1.81 µM | 3.89 µM | 2.5 | 6.79 | 14.6 | 14% | Dose-dependent effect
Cc1cc(-c2nc3ccccc3o2)ccc1NC(=O)CN1CCN(CCN(C)C)CC1 | 19.9 µM | 63.5 µM | 30.5 µM | 41.6 µM | 1.53 | 3.2 | 42.7 µM | 12.9 µM | 2.09 | 4.94 | 1.49 | – | –
Cc1ccc2oc(-c3ccc(NC(=O)CN4CCN(CCN(C)C)CC4)c(C)c3)nc2c1 | 12.8 µM | 5.67 µM | 11 µM | 90.3 µM | 0.06 | 0.44 | 16.6 µM | 7.24 µM | 0.51 | 0.78 | 0.34 | – | –
Cc1cc(-c2nc3cc(F)ccc3o2)ccc1NC(=O)CCl | 16.6 µM | 10.5 µM | 64.5 µM | > 100 µM | < 0.11 | 0.63 | > 100 µM | 25.4 µM | 0.16 | 0.41 | < 0.11 | – | –
Cc1cc(-c2nc3cc(Cl)ccc3o2)ccc1NC(=O)CN1CCN(CCCN(C)C)CC1 | 11.2 µM | 28.6 µM | 10.5 µM | 63.4 µM | 0.45 | 2.56 | 14.2 µM | 9.15 µM | 2.73 | 3.12 | 2.01 | – | –
Cc1ccc2oc(-c3ccc(NC(=O)CCl)c(C)c3)nc2c1 | 54.8 µM | 6.79 µM | 61.8 µM | 96.5 µM | 0.07 | 0.12 | 97.6 µM | 13.8 µM | 0.11 | 0.49 | 0.07 | – | –
Cc1cc(-c2nc3ccccc3o2)ccc1NC(=O)CCl | 14.8 µM | 12.2 µM | 33.5 µM | 29.8 µM | 0.41 | 0.82 | 27.2 µM | 13.8 µM | 0.36 | 0.88 | 0.45 | – | –
CN(C)CCCN1CCN(CC(=O)Nc2ccc(-c3nc4ccccc4o3)cc2)CC1 | 9.5 µM | 16.7 µM | 18.3 µM | 23.4 µM | 0.71 | 1.76 | 42.3 µM | 10.6 µM | 0.91 | 1.57 | 0.39 | – | –
Cc1cc(-c2nc3cc(F)ccc3o2)ccc1NC(=O)CN1CCN(CCCN(C)C)CC1 | 7.15 µM | 65.7 µM | 12.2 µM | 7.77 µM | 8.45 | 9.19 | 11.8 µM | 6.7 µM | 5.39 | 9.8 | 5.59 | – | –
Cc1cc(-c2nc3cc(Cl)ccc3o2)ccc1NC(=O)CCl | 35 µM | 8.64 µM | 91.5 µM | > 100 µM | < 0.09 | 0.25 | > 100 µM | > 100 µM | 0.09 | < 0.09 | < 0.09 | – | –
CN(C)CCN1CCN(CC(=O)Nc2ccc(-c3nc4cc(F)ccc4o3)cc2)CC1 | 18.8 µM | 72 µM | 16.6 µM | 20.8 µM | 3.46 | 3.84 | 4.39 µM | 8.19 µM | 4.33 | 8.79 | 16.4 | 46% | Dose-dependent effect
Cc1ccc2oc(-c3ccc(NC(=O)CN4CCN(CCCN(C)C)CC4)c(C)c3)nc2c1 | 5.65 µM | 13.2 µM | 15.3 µM | 19.8 µM | 0.67 | 2.34 | 7.32 µM | 12.7 µM | 0.87 | 1.04 | 1.81 | – | –
Cc1cc(-c2nc3cc(F)ccc3o2)ccc1NC(=O)CN1CCN(CCN(C)C)CC1 | 9.46 µM | 62.1 µM | 7.37 µM | 10.4 µM | 5.96 | 6.56 | 10.7 µM | 6.6 µM | 8.42 | 9.41 | 5.8 | – | –
Cc1cc(-c2nc3cc(Cl)ccc3o2)ccc1NC(=O)CN1CCN(CCN(C)C)CC1 | 3.88 µM | 19.2 µM | 24.4 µM | 39.3 µM | 0.49 | 4.95 | 13.5 µM | 13.2 µM | 0.79 | 1.45 | 1.43 | – | –
CN(C)CCCN1CCN(CC(=O)Nc2ccc(-c3nc4cc(F)ccc4o3)cc2)CC1 | 9.18 µM | 21.9 µM | 12.2 µM | 14.8 µM | 1.49 | 2.39 | 27.5 µM | 2.59 µM | 1.8 | 8.46 | 0.8 | – | –
